The values below come from a melting point compilation (Tetko et al.; mined from patent text by program, amines drawn as free bases though some values may be those of a salt).

As to `CN1CCN(C(=O)c2ccc(-c3[nH]nc4c3C(=O)c3c(NC(=O)NC5CNCCO5)cccc3-4)s2)CC1` (stereo not given), the melting point turned out to be 190 °C. The compound `Cn1cnc2c(=O)n(-c3ccccc3)c3ncccc3c21` returned a melting point of 262 °C. `O=Cc1ccc2c(c1)N(C1CCN(CCc3ccccc3F)CC1)CC2`: the melting point lay within 86 to 87 °C.

`CC(C)c1onc2c1c(=O)n(C)c(=O)n2C` registered a melting point of 106 °C. The figure for `O=Cc1c(F)cc(Br)cc1Br` is 57 to 58 °C; for `COc1ccccc1N1CCN(CCNC(=O)CCN2CCC(c3c[nH]c4cc(Cl)ccc34)CC2)CC1` it is 69 to 71 °C. `CCn1nc(C(=O)NC2CN(C)CCN(Cc3ccccc3)C2)c2ccccc21` (stereo not given) displayed a melting point of 135 to 137 °C. The figure for `Nc1ccc2c(Cl)cc(Cl)nc2n1` is 213 to 216 °C; for `Cc1[nH]n(C2CCCC2O)c2nc(-c3ccncc3)nc(=O)c1-2` (stereo not given) it is 281 to 283 °C; for `CCCCCCCCCCCCn1nnc(C(C(=O)Nc2c(OC)cc(OC)cc2OC)c2ccccc2)n1` (stereo not given) it is 119 to 120 °C. The figure for `CS(=O)Cc1cccc(-c2nc(=O)c3ccccc3s2)n1` (stereo not given) is 184 to 186 °C.

The compound `Cc1nnc2n1-c1ccc(Br)cc1C(c1ccccc1F)=NC2` had a melting point of 213 to 214 °C. The figure for `FC(F)(F)c1cccc(N2CCN(Cc3ccc4c(c3)NCCN4)CC2)c1` is 88 to 91 °C. For `COc1ncnc2ccsc12`, the melting point lay within 92 to 94 °C. The figure for `COC(=O)C1CNCCN1C(=O)/C=C/c1ccc(Sc2ccc3c(c2)OCCO3)c(C(F)(F)F)c1` (stereo not given) is 70 to 72 °C. The figure for `C=CCc1c(O)ccc(C(=O)OC)c1O` is 65 to 66 °C; for `CCOC(OCC)N1CCNC1=N[N+](=O)[O-]` it is 100 to 102 °C. The figure for `CCOC(=O)N1CCc2onc(Cl)c2C1` is 40 to 42 °C. Compound `NC(=O)c1ccc(Cl)c2c1CC([N+](=O)[O-])CO2` (stereo not given) yielded a melting point of 193 to 194 °C. `CCOC(=O)c1ccc(C(C(N)=O)C(C)c2cc(C)ccc2N2CCCCC2)cc1` (stereo not given) gave a melting point of 132 °C. Consider `S=C=NCc1ccc(Cl)nc1`, for which the melting point was 22 °C.

`O=C(NC1(C(=O)O)CCCC1)OCc1ccccc1`: the melting point lay within 70 to 80 °C. The figure for `CCn1ncc2c3onc(-c4ccc(Cl)cc4)c3cnc21` is 195 to 197 °C; for `CN1C(=O)C2(CCCC2(C)C)c2ccccc21` (stereo not given) it is 99 to 101 °C. The figure for `Cc1nc2c([nH]1)CCCC2=O` is 229 °C.

For `Cc1c(C2=NCCS2)[nH]c2c(NS(=O)(=O)c3cccs3)cccc12`, the melting point fell in the range of 163 to 164 °C. The figure for `COC(=O)C(O)(c1cc(F)cc(F)c1)c1cc(F)cc(F)c1` is 113 to 114 °C; for `COc1cc(OC)c([N+](=O)[O-])cc1[N+](=O)[O-]` it is 153 to 155 °C; for `C[C@@H](c1ccc(-c2ncc(C(=O)N(C)C)s2)cc1)N1CC[C@](CC(C)(C)O)(c2ccccc2)OC1=O` it is 110 to 112 °C. Turning to `Cc1cc(Cl)ccc1Oc1ccc(C(=O)C=CC(=O)O)cc1`, the melting point lay in the range of 138 to 139 °C. On to `CCN(CC)C(=O)c1ccc(-c2nc(=O)c3ccccc3s2)cc1`, for which the melting point is 180 °C. As to `COC(=O)C(=CC=Cc1cc([N+](=O)[O-])ccc1Cl)C(=O)OC`, the melting point lay within 167 to 168 °C. For `CCOC(=O)c1c(O)c2ccccc2[nH]c1=O`, the melting point was 173 °C. The figure for `CCCC1=C(C#N)C(c2ccccc2C#N)c2c[nH]nc2N1` (stereo not given) is 218 °C. Turning to `C#Cc1ccc2c(c1)C(c1ccccc1Cl)=NCc1nnc(C)n1-2`, the melting point is 304 to 306 °C. The figure for `CNC(=S)N1CCC(c2nn(-c3ccc(F)cc3)c3ccccc23)CC1` is 179 to 181 °C; for `Cc1ccc(C)c(NC(=O)C(C)c2ccc(N)c([N+](=O)[O-])c2)c1` (stereo not given) it is 187 to 188 °C; for `Cn1ncnc1COc1nc2c(cc1C(C)(C)C)nnn2-c1ccccc1F` it is 115 to 117 °C. Consider `Cc1ccc(C(=O)NN2CCOCC2)c(Nc2ccc3cn[nH]c3c2)n1`, for which the melting point was 265 to 268 °C. The figure for `C=C=COc1ccccc1S(=O)(=O)NC(=O)Nc1nc(C)nc(OC)n1` is 150 to 151 °C; for `Cc1cc(CCCCCCCOc2ccc(C3=NCCN3)cc2)on1` it is 118 to 119 °C. Compound `CC(CSC(C)C(=O)O)C(=O)O` (stereo not given) displayed a melting point of 78 to 80 °C.

Turning to `COc1ccc(Cn2cc3nc(Cl)nc(OCc4ccccc4)c3n2)cc1`, the melting point lay in the range of 150 to 153 °C. As for `Nc1ccc2c(c1)N(C(=O)CCCl)CC2`, the melting point was 158 to 159 °C. The figure for `CC(C)n1nc(C(=CN(C)C)C(=O)c2ccc(F)cc2)ccc1=O` is 161 to 162 °C. In turn, `O=C(Nc1cc(Cl)ccn1)c1ccn2c1CSC2c1cccnc1` (stereo not given) yielded a melting point of 190 °C. The figure for `CCOC(=O)Cn1cc(C(=O)Nc2ccc(OCC(C)(C)C)c(C#N)c2)c(C)n1` is 240 °C; for `CNC(=O)c1ccc(N2CCN(Cc3cc4c(c(OC)c3)OC(C)C(=O)N4)CC2)cc1` (stereo not given) it is 256 °C. `CSc1ccc(C(=O)c2cc(C)cc(CC(N)=O)c2N)cc1`: the melting point was 188 to 190 °C.

`CC12CCC3C4CCC(=O)C=C4CCC3C1CCC2C(F)F` (stereo not given) gave a melting point of 102 to 103 °C.

On to `NC(=O)c1[nH]c2ccccc2c1-c1ccc(NC(=O)Nc2ccccc2F)cc1`, for which the melting point was 146 to 148 °C.

As for `COC1CC(n2cc(C=CBr)c(=O)[nH]c2=O)OC1CCl` (stereo not given), the melting point is 145 °C. The compound `CCCCCCCCCCCCCC=C(C(=O)O)c1ccc2c(c1)C(C)(C)CCC2(C)C` gave a melting point of 59 to 60 °C.

In turn, `CCOc1cc(Cc2cnc(N)nc2N)cc2c1OC(C)(C)C=C2CO` had a melting point of 187 to 189 °C. In turn, `O=C(CNC(=O)n1ccnc1)N(c1ccccc1)c1ccccc1` registered a melting point of 162 °C. The figure for `O=C(Nc1nc(C(F)(F)F)co1)C1c2ccccc2Oc2c(F)cccc21` (racemic) is 233 °C; for `Cn1c(C(=O)O)c(Oc2ccccc2N)c2ccccc21` it is 193 to 194 °C; for `O=c1cc(-c2ccoc2)c2ccc(Sc3cccc(-c4ccccc4)n3)cc2o1` it is 175 to 178 °C. The figure for `CS(=O)(=O)OCC1CC(=O)N(c2ccc(-c3ccc(C#N)cc3)cc2)C1` (stereo not given) is 183 to 186 °C. The compound `CC1(CN2CCN(c3ccc(C(F)(F)F)cc3)CC2)Cn2cc([N+](=O)[O-])nc2O1` (stereo not given) came in with a melting point of 159 to 160 °C. The figure for `COc1cccc(-c2nc(N)nc(Nc3cccc([N+](=O)[O-])c3)n2)c1` is 197 °C.

Consider `NC(=O)c1cccc(-c2ccnc3cc(Cc4cccc(C(F)(F)F)c4)sc23)c1`, for which the melting point was 191 to 192 °C. `COC1OCC[C@@H]1NC(=O)CN(CC(C)C)C(=O)CNC(=O)COc1ccc2c(c1)Nc1ccccc1S2` (stereo not given in full) came in with a melting point of 162 to 164 °C. The figure for `CC(C)(C1=NOS(=O)N1)c1ccc2ccccc2c1` (stereo not given) is 146 to 147 °C; for `CCCc1c(OCCCCCCc2ccc(CCCCC(=O)O)c(CCC(=O)O)c2)ccc2c1OCCC2=O` it is 108 to 109 °C.
